Here are results for eleven molecules from publication PMC9967051, “(S)-N-Benzyl-1-phenyl-3,4-dihydroisoqunoline-2(1H)-carboxamide Derivatives, Multi-Target Inhibitors of Monoamine Oxidase and Cholinesterase: Design, Synthesis, and Biological Activity” (Molecules, 2023).

One data set deals with AChE (Homo sapiens, UniProt P22303). The note with it: cited from earlier work.
In data set [1] the target is T1, BChE (Homo sapiens, UniProt P06276). The note with it: cited from earlier work.
Data set [2] has as its target electric eel acetylcholinesterase (EeAChE). The note with it: cited from earlier work.
Data set [3] concerns the target horse serum butyrylcholinesterase (EqBChE). The settings on record: cited from earlier work.
Data set [4] addresses T2, MAO-A (Homo sapiens, UniProt P21397).
T2 construct: purchased Aladdin Reagent Chemicals
T2 sequence (P21397 1-527): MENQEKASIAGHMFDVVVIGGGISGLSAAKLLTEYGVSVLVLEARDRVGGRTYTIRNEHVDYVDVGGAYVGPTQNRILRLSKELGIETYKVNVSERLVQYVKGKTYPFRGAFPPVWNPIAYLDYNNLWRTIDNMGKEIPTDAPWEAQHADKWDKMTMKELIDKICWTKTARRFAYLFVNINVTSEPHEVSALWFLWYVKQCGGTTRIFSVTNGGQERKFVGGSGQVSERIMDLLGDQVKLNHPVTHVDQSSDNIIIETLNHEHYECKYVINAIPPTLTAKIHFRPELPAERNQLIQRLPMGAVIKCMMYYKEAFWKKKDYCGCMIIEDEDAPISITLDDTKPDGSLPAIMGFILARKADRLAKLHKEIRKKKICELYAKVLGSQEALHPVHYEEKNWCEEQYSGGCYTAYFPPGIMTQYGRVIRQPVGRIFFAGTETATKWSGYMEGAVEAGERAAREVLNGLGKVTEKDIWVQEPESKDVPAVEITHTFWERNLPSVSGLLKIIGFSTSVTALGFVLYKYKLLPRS
The settings on record: cited from earlier work.

Another data set relates to MAO. Put plainly: MAO activity assay (total MAO). The data set is classed as biochemical. As for the experimental part: (§1) The enzyme activity analysis was performed according to the procedure reported by Matsumoto et al. with slight modifications. All materials used in the enzymatic assays were purchased from Aladdin Reagent Chemicals. […] The concentrations of the synthesized compounds altered from 0.001 µM to 100 µM for the MAO-A and -B enzyme activity inhibition. […] The enzymatic reactions were caused by the addition of MAO-A (40 µg/mL) or MAO-B (20 µg/mL), and cultured at 37 °C for 30 min. The enzyme reactions were stopped through the addition of 2N NaOH for 75 µL. […] The inhibitory effect of enzyme activity was calculated as a percentage of product formation compared to the corresponding control with no inhibitor. A control was established to determine the interference of the tested compounds to the fluorescence assay, and the enzyme or substrate was added after the reaction stopped.

Data set [5] deals with T2, MAO-A. Put plainly: MAO activity assay, MAO-A. The data set is classed as biochemical. As for the experimental part:
as §1

In data set [6] the target is T3, MAO-B (Homo sapiens, UniProt P27338).
T3 construct: purchased Aladdin Reagent Chemicals
T3 sequence (P27338 1-520): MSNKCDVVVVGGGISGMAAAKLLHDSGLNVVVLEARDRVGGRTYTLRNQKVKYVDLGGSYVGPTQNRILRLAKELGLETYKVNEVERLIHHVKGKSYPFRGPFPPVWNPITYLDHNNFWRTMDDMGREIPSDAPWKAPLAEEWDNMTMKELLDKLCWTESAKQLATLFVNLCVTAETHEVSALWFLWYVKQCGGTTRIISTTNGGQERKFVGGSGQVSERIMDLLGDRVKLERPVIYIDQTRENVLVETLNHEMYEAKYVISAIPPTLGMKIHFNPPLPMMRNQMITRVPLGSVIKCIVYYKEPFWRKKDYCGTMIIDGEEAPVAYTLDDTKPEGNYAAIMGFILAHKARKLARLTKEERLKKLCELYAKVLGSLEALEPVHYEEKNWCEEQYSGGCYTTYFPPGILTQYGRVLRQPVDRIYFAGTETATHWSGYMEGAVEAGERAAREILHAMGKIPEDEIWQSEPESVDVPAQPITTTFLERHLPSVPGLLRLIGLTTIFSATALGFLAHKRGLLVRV
Put plainly: MAO activity assay, MAO-B. The data set is classed as biochemical. Here is the method: as §1

The nature of the next data set: MTT cytotoxicity test. The settings on record: mouse; L929 cells, compared with the blank control, 3.125 to 100 μM. Type of data set: cell-based. Here is the method:
(§2) L929 cells in the logarithmic growth phase were selected, and the cell density was adjusted to 2 × 10^4 per well by a cell counter. The 96-well plate was inoculated in a 96-well plate, and the 96-well plate inoculated with cells was cultured in a 37 °C 5% carbon dioxide cell incubator for 24 h. Then, the medium containing 100 μM of the compound to be tested was added (the blank group was added to the medium without drug), shaken gently, and placed in a 5% carbon dioxide cell incubator at 37 °C for 24 h. Each concentration was repeated for […].
(§3) The assay detects live cells, but not dead cells, and the resulting signal depends on how activated the cells are. […] Therefore, MTT has been used to establish quantitative colorimetric assays for mammalian cell survival and proliferation. Therefore, this method can be used to measure cytotoxicity, proliferation, or activation. After 24 h, 20 μL of […] MTT solution (prepared in PBS with pH 7.6) was added in the dark, and cultured in a cell incubator for another 4 h. After 4 h, the 96 plate was taken out to discard the original medium, and 160 μL of DMSO was added, placed on a shaker, and mixed for about 10 min. Then, a microplate reader was used to measure its absorbance at 490 nm, and the results were recorded and analyzed.
In general terms: Tetrazolium assays rely on reduction of a dye to a coloured formazan, in cell work by metabolically active cells.

Data set [7] concerns L929 cells. Nature of the data set: MTT cytotoxicity test. The note with it: MTT, 3.125 to 100 μM. Type of data set: cell-based. Here is the method: as §2, §3
Data set [8] relates to L929 cells. Nature of the data set: AO fluorescent staining cell viability. The note with it: 100 μM, compared with the control group. The data set is classed as cell-based. As for the experimental part:
Using the AO Fluorescent Staining Kit, AO is a tricyclic heteroaromatic dye that can penetrate cells with intact cell membranes and embed nuclear DNA, making them emit bright green fluorescence. L929 cells were selected from the logarithmic growth phase, and the cell density was adjusted to 8 × 10^5 per well with a cell counter to inoculate in a 6-well plate, and the 6-well plate was placed in a 37 °C 5% carbon dioxide cell incubator for 12 h. It grew completely adhering to the wall. After 12 h, 1 mL of medium containing 100 μM of the compound to be tested was added (for the blank group, drug-free medium was added), shaken gently, and placed in a 5% carbon dioxide cell incubator at 37 °C for 12 h. After 12h, the medium was discarded, PBS was added to wash once, 1 mL of PBS and 80 μL of AO solution (prepared according to the kit instructions) were slowly added in the dark, and mixed for 5 min to make the staining uniform and sufficient. The staining was aspirated after 5 min, washed 1–2 times with PBS, and observed under a fluorescence microscope, the results were recorded and analyzed.

Details of data set [9]: method as in doi:10.1007/s00044-018-2261-2. The note with it: forced swimming test, p< 0.001; cited from earlier work.
Data set [10] concerns the target T1, BChE. Put plainly: biochemical. The note with it: compounds concentration 100 µM; read-out: Inhibition Rate BChE. As for the experimental part:
Inhibition of AChE and BChE was measured through the spectrophotometric method developed by Ellman’s method with slight modifications. The analysis protocol contained 96-well plates (100 µL per well). Each well involved 20 µL of assay buffer solution, 20 µL of the test sample, and 40 µL of 0.2 U/mL of AChE or BChE. The mixture was incubated for 10 min at 25 °C followed by the addition of substrate (20 µL). For AChE inhibition assay, acetylthiocholine iodide (ATCI, 0.001 mol/L), while for BChE assay, butyrylthiocholine chloride (BTCCl, 0.001 mol/L) was added to it. The mixture was incubated at 37 °C for 15 min. Ellman reagent (5,5′-dithio-bis(2-nitrobenzoic acid), DTNB, 0.001 mol/L) was added. […] The blank analysis was performed. All the analyses were performed in triplicate. Inhibition rate of experimental sample or positive control group (%) = [(control group-blank background)-(experimental sample or positive control group -sample background)]/(control-blank background) × 100%.

Data set [11] has as its target T3, MAO-B. The settings on record: cited from earlier work.

SMILES strings stand for the structures. pIC50: −log10 of the molar value. Read-outs that look alike come from different tables or passages of the source.

T1 sequence (P06276 29-602): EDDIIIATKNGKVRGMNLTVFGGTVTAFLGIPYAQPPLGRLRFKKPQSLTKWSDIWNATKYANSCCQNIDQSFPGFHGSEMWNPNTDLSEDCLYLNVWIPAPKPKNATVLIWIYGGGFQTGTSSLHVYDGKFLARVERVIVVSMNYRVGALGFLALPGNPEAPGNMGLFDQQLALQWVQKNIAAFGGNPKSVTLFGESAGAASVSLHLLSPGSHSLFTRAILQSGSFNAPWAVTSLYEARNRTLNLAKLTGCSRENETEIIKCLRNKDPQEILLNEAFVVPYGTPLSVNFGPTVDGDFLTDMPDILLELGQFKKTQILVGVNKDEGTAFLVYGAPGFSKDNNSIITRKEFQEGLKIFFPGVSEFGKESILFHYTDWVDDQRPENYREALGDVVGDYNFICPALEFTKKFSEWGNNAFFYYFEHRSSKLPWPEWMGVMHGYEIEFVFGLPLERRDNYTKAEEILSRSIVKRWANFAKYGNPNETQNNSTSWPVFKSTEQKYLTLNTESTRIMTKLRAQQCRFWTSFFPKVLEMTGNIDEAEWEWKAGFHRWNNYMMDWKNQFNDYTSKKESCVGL
Chain of AChE (P22303 32-614): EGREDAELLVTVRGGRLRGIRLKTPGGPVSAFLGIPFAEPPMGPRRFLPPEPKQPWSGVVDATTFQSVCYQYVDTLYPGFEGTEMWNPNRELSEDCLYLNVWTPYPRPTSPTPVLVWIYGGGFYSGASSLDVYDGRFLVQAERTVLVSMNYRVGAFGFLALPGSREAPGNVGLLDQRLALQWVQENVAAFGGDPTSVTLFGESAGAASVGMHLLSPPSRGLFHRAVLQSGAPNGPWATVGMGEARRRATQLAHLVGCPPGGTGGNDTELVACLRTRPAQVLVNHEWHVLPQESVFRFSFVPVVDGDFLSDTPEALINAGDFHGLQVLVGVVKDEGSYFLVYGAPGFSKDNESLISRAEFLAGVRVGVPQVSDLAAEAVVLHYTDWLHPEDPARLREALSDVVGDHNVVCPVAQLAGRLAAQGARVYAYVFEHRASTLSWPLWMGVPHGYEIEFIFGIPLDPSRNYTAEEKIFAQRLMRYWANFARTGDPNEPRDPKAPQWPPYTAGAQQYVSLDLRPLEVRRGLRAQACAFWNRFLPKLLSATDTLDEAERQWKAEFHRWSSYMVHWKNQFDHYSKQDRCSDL

On to `COc1ccc(CC2c3cc(O)c(OC)cc3CCN2C)cc1O` (stereo not drawn) [reticuline], for which the values for the pIC50 at AChE and on BChE [1] were 3.52 and 4.19, respectively.
For the molecule `C[n+]1cc2cc3c(cc2c2ccc4cc5c(cc4c21)OCO5)OCO3` [avicine], the pIC50 (usually the IC50 on a negative log10 scale, so that one unit is a factor of ten) in [2] is 6.82; in [3], 6.06; at MAO-A [4], 6.39.
`COc1ccc(CNC(=O)N2CCc3ccccc3[C@@H]2c2ccccc2)c(OC)c1` [2v, (S)-N-(2,4-dimethoxybenzyl)-1-phenyl-3,4-dihydroisoquinoline-2(1H)-carboxamide]: the values for the pIC50 in the data set with MAO, against MAO-A [5] and against MAO-B [6] were 6.02, 5.45 and 5.45, respectively. The viability (commonly a read-out of living cells in per cent, often relative to untreated cells) at 24 h in the data set “MTT cytotoxicity test” is greater than 90%. In addition, in the data set with L929 cells [7], the “cytotoxicity against L929 cells” value is listed as “no obvious cytotoxicity”. For the same molecule, the “toxicity toward L929 cells (AO fluorescence staining)” value (shortened to “toxicity toward L929 cells”) with L929 cells [8] is on record as “no significant toxicity”.
Turning to `COc1cc2c3c(c1OC)-c1cc4c(cc1CC3NCC2)OCO4` (stereo not drawn) [nornantenine], the negative-log IC50 (pIC50) on AChE is 3.69; on BChE [1] it was 4.02.
As for `O=C(NCc1ccccc1)N1CCc2ccccc2[C@@H]1c1ccccc1` [2a, (S)-N-benzyl-1-phenyl-3,4-dihydroisoquinoline-2(1H)-carboxamide], the “Inhibition Rate for MAO” value in the data set with MAO (compounds concentration 100 µM) is listed as 29.2%. The duration of immobility in data set [9] is given as 11.0 ± 7.1 s.
Regarding `COc1cccc(CNC(=O)N2CCc3ccccc3[C@@H]2c2ccccc2)c1` [2t, (S)-N-(m-methoxybenzyl)-1-phenyl-3,4-dihydroisoquinoline-2(1H)-carboxamide], the pIC50 was 5.68 in the data set with MAO, 5.60 at MAO-A [5] and 5.79 on MAO-B [6]. Further, at BChE [10], the inhibition (commonly how much of the control response was suppressed) at 100 µM was 55%. In addition, the viability at 24 h in “MTT cytotoxicity test” is greater than 90%. For the same molecule, in the data set with L929 cells [7], the “cytotoxicity against L929 cells” value is given as “no obvious cytotoxicity”. For the same molecule, the “toxicity toward L929 cells” value with L929 cells [8] is on record as “no significant toxicity”.
As for `O=C(NCc1ccc(F)cc1)N1CCc2ccccc2[C@@H]1c1ccccc1` [2d, (S)-N-(p-fluorobenzyl)-1-phenyl-3,4-dihydroisoquinoline-2(1H)-carboxamide], the values for the pIC50 in the data set on MAO, against MAO-A [5] and at MAO-B [6] were 5.24, 5.86 and less than 4.00, respectively. The viability at 24 h in the data set “MTT cytotoxicity test” is greater than 90%. In addition, in the data set on L929 cells [7], the “cytotoxicity against L929 cells” value was “no obvious cytotoxicity”. Further, the “toxicity toward L929 cells” value in the data set with L929 cells [8] was “no significant toxicity”.
For `Cc1ccccc1CNC(=O)N1CCc2ccccc2[C@@H]1c1ccccc1` [2p, (S)-N-(o-methylbenzyl)-1-phenyl-3,4-dihydroisoquinoline-2(1H)-carboxamide], the pIC50 is 6.11 in the data set on MAO, 5.53 at MAO-A [5] and 5.41 against MAO-B [6]. For the same molecule, the viability at 24 h in “MTT cytotoxicity test” was greater than 90%. The “cytotoxicity against L929 cells” value in the data set with L929 cells [7] is “no obvious cytotoxicity”. For the same molecule, in the data set on L929 cells [8], the “toxicity toward L929 cells” value was “no significant toxicity”.
For the molecule `O=C(NCc1ccc(Br)cc1)N1CCc2ccccc2[C@@H]1c1ccccc1` [2j, (S)-N-(p-bromobenzyl)-1-phenyl-3,4-dihydroisoquinoline-2(1H)-carboxamide], the values for the pIC50 in the data set on MAO, against MAO-A [5] and against MAO-B [6] were 5.71, 5.61 and less than 4.00, respectively. Also, the inhibition at 100 µM on BChE [10] stood at 34.5%. The viability at 24 h in the data set “MTT cytotoxicity test” is greater than 90%. Further, the “cytotoxicity against L929 cells” value with L929 cells [7] is given as “no obvious cytotoxicity”. Besides, the “toxicity toward L929 cells” value in the data set on L929 cells [8] was “no significant toxicity”.
As for `COc1ccc2c(c[n+](C)c3c4cc5c(cc4ccc23)OCO5)c1OC` [chelerythrine], the negative logarithm of the IC50 (pIC50) at MAO-B [11] is less than 4.70.
For `O=C(NCc1cccc(Br)c1)N1CCc2ccccc2[C@@H]1c1ccccc1` [2i, (S)-N-(m-bromobenzyl)-1-phenyl-3,4-dihydroisoquinoline-2(1H)-carboxamide], the negative logarithm of the IC50 (pIC50) in the data set on MAO was 5.87; on MAO-A [5] it was 5.81; on MAO-B [6], 5.37. The molecule further showed a viability at 24 h in the data set “MTT cytotoxicity test” greater than 90%. Besides, in the data set on L929 cells [7], the “cytotoxicity against L929 cells” value is on record as “no obvious cytotoxicity”. Also, the “toxicity toward L929 cells” value in the data set on L929 cells [8] is reported as “no significant toxicity”.
